This passage reports IC50 and ED50 results from ChEMBL document CHEMBL1127970, “Dual metalloprotease inhibitors. IV. Utilization of thiazepines and thiazines as constrained peptidomimetic surrogates in mercaptoacyl dipeptides” (Bioorg Med Chem Lett, 1994).

For assay [1], the target named is T1, Angiotensin-converting enzyme (Rattus norvegicus, UniProt P47820).
T1 sequence (P47820 whole entry): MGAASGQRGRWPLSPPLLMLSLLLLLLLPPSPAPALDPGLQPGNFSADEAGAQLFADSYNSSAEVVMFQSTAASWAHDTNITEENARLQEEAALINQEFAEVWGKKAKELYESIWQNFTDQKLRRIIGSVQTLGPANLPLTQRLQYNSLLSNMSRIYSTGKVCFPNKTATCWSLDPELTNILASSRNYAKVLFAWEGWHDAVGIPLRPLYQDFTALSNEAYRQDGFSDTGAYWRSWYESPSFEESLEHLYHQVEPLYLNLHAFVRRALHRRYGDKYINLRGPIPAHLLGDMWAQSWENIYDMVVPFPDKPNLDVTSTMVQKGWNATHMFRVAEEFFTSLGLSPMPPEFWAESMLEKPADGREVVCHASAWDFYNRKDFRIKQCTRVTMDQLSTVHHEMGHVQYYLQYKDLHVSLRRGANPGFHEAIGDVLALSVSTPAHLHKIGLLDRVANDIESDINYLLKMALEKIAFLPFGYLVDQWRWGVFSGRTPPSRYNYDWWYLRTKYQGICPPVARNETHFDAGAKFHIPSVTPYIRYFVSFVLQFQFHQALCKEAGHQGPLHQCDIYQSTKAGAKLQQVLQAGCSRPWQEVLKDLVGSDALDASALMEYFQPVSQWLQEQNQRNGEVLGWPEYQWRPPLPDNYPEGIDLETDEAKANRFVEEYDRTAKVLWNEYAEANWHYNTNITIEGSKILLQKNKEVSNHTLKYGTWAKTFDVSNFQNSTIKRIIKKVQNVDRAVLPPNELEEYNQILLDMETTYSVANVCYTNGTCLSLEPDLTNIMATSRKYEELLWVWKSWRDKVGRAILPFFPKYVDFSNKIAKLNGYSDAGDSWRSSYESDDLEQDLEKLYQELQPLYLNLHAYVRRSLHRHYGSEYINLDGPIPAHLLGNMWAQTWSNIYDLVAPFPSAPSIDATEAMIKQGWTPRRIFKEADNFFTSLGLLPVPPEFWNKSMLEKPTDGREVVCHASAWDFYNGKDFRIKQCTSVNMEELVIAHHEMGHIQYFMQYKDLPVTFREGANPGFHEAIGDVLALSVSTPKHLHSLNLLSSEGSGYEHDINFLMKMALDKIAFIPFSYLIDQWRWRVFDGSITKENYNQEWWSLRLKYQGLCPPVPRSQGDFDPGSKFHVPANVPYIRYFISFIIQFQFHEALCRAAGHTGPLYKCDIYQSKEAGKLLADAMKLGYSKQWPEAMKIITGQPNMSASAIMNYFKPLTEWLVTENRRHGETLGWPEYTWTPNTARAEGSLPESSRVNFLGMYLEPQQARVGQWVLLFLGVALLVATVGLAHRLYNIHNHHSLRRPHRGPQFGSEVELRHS
Description: In vitro inhibition of angiotensin converting enzyme isolated from rat lung. The settings on record: read-out: I50.

In a further assay the target is T2, Neprilysin (Rattus norvegicus, UniProt P07861).
T2 sequence (P07861 whole entry): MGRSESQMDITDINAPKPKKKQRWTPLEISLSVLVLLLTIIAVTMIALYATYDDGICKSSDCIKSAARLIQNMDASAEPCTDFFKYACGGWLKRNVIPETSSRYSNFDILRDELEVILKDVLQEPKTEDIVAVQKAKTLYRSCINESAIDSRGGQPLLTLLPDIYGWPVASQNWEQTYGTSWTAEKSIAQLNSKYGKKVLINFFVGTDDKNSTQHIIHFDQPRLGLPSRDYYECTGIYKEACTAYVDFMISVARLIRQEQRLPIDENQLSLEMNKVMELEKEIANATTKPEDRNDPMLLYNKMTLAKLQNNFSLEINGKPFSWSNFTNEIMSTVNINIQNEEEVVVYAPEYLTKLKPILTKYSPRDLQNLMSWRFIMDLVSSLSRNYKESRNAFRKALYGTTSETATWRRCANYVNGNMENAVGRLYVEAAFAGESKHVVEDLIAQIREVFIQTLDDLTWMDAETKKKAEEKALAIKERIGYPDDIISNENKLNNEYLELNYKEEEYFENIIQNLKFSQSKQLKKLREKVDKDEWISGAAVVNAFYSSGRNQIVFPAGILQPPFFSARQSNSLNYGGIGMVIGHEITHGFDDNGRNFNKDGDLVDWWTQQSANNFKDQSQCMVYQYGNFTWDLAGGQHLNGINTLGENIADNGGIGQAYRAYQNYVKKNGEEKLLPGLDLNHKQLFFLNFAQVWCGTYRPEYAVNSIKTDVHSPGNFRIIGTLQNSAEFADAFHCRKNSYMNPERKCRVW
Briefly: In vitro inhibition of Neutral Endopeptidase isolated from rat kidney. The settings on record: read-out: I50.

The next assay concerns Rattus norvegicus. Briefly: Effective dose required to inhibit angiotensin 1(AI) induced pressor response in normotensive rats when administered intravenously. Type of assay: functional. The settings on record: iv.

As usually defined, the ED50 is the midpoint of the dose-response relation. Low values mean an effect at a small dose, high ones a need for a large dose. Regarding `O=C(O)CN1CCSC[C@H](NC(=O)[C@@H](S)Cc2ccccc2)C1=O`, the values for the IC50 (in assay [1]; on Neprilysin) were 67 nM and 244 nM, respectively. In the assay with Rattus norvegicus, this compound displayed an ED50 of 4.4 µmol/kg.

In the case of `O=C(O)CN1C[C@@H](c2ccccc2)SC[C@H](NC(=O)[C@@H](S)Cc2ccccc2)C1=O`, the IC50 in assay [1] stood at 40 nM; at Neprilysin, 99 nM. The compound also came in with an ED50 with Rattus norvegicus of less than 0.15 µmol/kg.

On to `CC1(C)CSC[C@H](NC(=O)[C@@H](S)Cc2ccccc2)C(=O)N1CC(=O)O`, for which the IC50 in assay [1] came to 13.8 nM.

As for `O=C(O)CN1C(=O)[C@@H](NC(=O)[C@@H](S)Cc2ccccc2)CS[C@H]1c1ccccc1`, the IC50 in assay [1] came out at 73 nM.

With `O=C(O)CN1C(=O)[C@H](NC(=O)[C@@H](CS)Cc2ccccc2)CS[C@@H]1c1ccccc1`, the values for the IC50 (in assay [1]; on Neprilysin) were 123 nM and 126 nM, respectively.

In the case of `O=C(O)CN1C[C@@H](c2ccccc2)SC[C@H](NC(=O)[C@@H](CS)Cc2ccccc2)C1=O`, the IC50 in assay [1] is 33 nM. The ED50 with Rattus norvegicus is greater than 1.5 µmol/kg.

As to `O=C(O)CN1CSCC[C@H](NC(=O)[C@@H](S)Cc2ccccc2)C1=O`, the results for the IC50 (in assay [1]; on Neprilysin) were 61 nM and 535 nM, respectively.

On to `O=C(O)CN1CCSC[C@H](NC(=O)[C@@H](CS)Cc2ccccc2)C1=O`, for which the IC50 in assay [1] was 100 nM.

With `C[C@@H]1SCC[C@H](NC(=O)[C@@H](S)Cc2ccccc2)C(=O)N1CC(=O)O`, the IC50 in assay [1] is 11.7 nM.

As to `O=C(O)CN1C(=O)[C@@H](NC(=O)[C@@H](S)Cc2ccccc2)CSc2ccccc21`, the IC50 in assay [1] worked out at 13 nM. Besides, it took a dose of 0.14 µmol/kg to reach the 50% effect level in the assay with Rattus norvegicus (ED50).

`O=C(O)CN1C(=O)[C@@H](NC(=O)[C@@H](S)Cc2ccccc2)CS[C@@H]1c1ccccc1`: the IC50 in assay [1] came out at 25 nM. Further, the ED50 in the assay with Rattus norvegicus turned out to be 2.75 µmol/kg.

On to `O=C(O)CN1C(=O)[C@@H](NC(=O)[C@@H](CS)Cc2ccccc2)CSC[C@H]1c1ccccc1`, for which, in assay [1], the IC50 amounted to 22 nM.

Turning to `O=C(O)CN1C(=O)[C@@H](NC(=O)[C@@H](CS)Cc2ccccc2)CSc2ccccc21`, the IC50 amounted to 17 nM in assay [1] and 1 nM at Neprilysin. In the assay on Rattus norvegicus, the 50% effect level (ED50) was put at a dose of 3.96 µmol/kg.

With `O=C(O)CN1C(=O)[C@@H](NC(=O)[C@@H](S)Cc2ccccc2)CSC[C@H]1c1ccccc1`, the IC50 in assay [1] amounted to 29 nM. For the same compound, the median effective dose (ED50) in the assay with Rattus norvegicus turned out to be 0.49 µmol/kg.

For the compound `O=C(O)CN1C(=O)[C@@H](NC(=O)[C@@H](CS)Cc2ccccc2)CS[C@H]1c1ccccc1`, the IC50 in assay [1] is 115 nM; on Neprilysin, 2.7 nM.

As for `O=C(O)CN1C(=O)[C@H](NC(=O)[C@@H](S)Cc2ccccc2)CS[C@@H]1c1ccccc1`, the IC50 in assay [1] came out at 20 nM. In the assay with Rattus norvegicus, this compound returned an ED50 of 0.21 µmol/kg.

Turning to `O=C(O)CN1C(=O)[C@@H](NC(=O)[C@@H](CS)Cc2ccccc2)CS[C@@H]1c1ccccc1`, the IC50 in assay [1] was determined as 167 nM; at Neprilysin, 2.5 nM.

For `O=C(O)CN1C[C@H](c2ccccc2)SC[C@H](NC(=O)[C@@H](S)Cc2ccccc2)C1=O`, the IC50 in assay [1] amounted to 290 nM; at Neprilysin, 2040 nM.
